# Measured values reported in article PMC12775434, “Ultra-large virtual screening unveils potent agonists of the neuromodulatory orphan receptor GPR139” (Nature Communications, 2025).
# Where “and” joins values, the source holds several entries; their conditions need not be identical. Equal values may be shown once.
# What was measured:
# Assay type in all cases: cell-based
# GPR139 [1] = target: T1, GPR139 (Homo sapiens, UniProt Q6DWJ6); experiment: Ca2+ mobilization assay, antagonist mode (EC80 800 nM Lundbeck Cmp 1a after 20 min preincubation), GPR139-CHOk1; details: individual replicates (Supplementary Figure 4)
# T1 sequence (Q6DWJ6 1-353): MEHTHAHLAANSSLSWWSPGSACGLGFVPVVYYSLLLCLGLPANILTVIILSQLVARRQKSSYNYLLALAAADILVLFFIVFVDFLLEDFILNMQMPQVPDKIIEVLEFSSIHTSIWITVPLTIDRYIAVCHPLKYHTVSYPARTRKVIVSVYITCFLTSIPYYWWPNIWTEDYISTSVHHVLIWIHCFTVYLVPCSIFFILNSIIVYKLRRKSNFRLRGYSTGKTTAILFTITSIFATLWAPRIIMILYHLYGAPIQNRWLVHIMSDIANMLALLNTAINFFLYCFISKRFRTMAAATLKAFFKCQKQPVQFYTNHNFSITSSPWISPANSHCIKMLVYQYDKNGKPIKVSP
# Method in brief: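 Antagonist mode: 800 nM (EC80) reference agonist Lundbeck Cmp 1a added following 20 min pre-incubation with 10 µM compound. GPR139-CHOk1 cells, Fluo-4 dye, probenecid-containing HEPES buffer pH 7.4; intracellular Ca2+ measured at 37 °C (ex 485, em 525 nm).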
# GPR139 [2] = target: T1, GPR139; experiment: Ca2+ mobilization assay, agonist mode, stable GPR139-CHOk1 cell line; details: for EC50 / Emax: Supplementary Table 2, mean ± SEM; for EC50: read-out: pEC50 Ca2+ (converted); for Emax: normalized to Lundbeck Cmp 1a, read-out: Emax (%) Ca2+
# Method in brief: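 Agonist activity of compounds is assessed in stably transfected CHO-K1 cells using the calcium dye Fluo-4 at 37 °C in HEPES-buffered HBSS (pH 7.4). Efficacy is expressed relative to the reference agonist Lundbeck Cmp 1a, set as 100%.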
# [3] = target: T2, human muscarinic acetylcholine M1 receptor (M1R) (Homo sapiens, UniProt P11229); experiment: Ca2+ mobilization counter-screen in M1R-CHOk1 cells; details: individual replicates (Supplementary Figure 5);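 note: 10 µM test compound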
# T2 sequence (P11229 1-460): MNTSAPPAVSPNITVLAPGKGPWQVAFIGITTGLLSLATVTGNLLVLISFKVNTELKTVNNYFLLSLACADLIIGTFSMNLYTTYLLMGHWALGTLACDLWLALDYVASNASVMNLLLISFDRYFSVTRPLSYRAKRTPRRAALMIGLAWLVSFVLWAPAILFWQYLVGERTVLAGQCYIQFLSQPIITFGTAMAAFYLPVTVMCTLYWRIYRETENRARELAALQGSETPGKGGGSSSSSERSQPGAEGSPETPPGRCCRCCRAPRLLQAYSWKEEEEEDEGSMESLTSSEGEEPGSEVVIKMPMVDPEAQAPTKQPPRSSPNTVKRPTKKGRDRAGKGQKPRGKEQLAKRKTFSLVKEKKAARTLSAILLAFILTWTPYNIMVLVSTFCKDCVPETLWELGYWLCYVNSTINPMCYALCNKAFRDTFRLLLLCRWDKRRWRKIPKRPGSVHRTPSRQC
# Method in brief: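 Counter-screen used CHO-K1 cells stably carrying human M1R, Fluo-4 AM-loaded (2 µM, 1 h, 37 °C). Calcium signal measured at 485/525 nm after compound addition.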
# [4] = Agonist mode, individual replicates (Supplementary Figure 4)
# [5] = log [Compound] M = -4.5, individual replicate columns
# [6] = log [Compound] M = -5.0, individual replicate columns
# [7] = log [Compound] M = -5.5, individual replicate columns
# [8] = log [Compound] M = -6.0, individual replicate columns
# [9] = log [Compound] M = -6.5, individual replicate columns
# [10] = log [Compound] M = -7.0, individual replicate columns
# [11] = log [Compound] M = -7.5, individual replicate columns
# [12] = log [Compound] M = -8.0, individual replicate columns
# [13] = log [Compound] M = -8.5, individual replicate columns
# [14] = log [Compound] M = -9.0, individual replicate columns
SMILES,Ca2+ signal (% of Cmp 1a) (GPR139 [1]),Ca2+ signal (% of Cmp 1a) (GPR139 [2]; [4]),change in potency with larger substituents on the thiophene ring (GPR139 [2]; Ca2+ mobilization),EC50 (GPR139 [2]),Emax (GPR139 [2]),Ca2+ signal (% of Cmp 1a) (GPR139 [2]; [5]),Ca2+ signal (% of Cmp 1a) (GPR139 [2]; [6]),Ca2+ signal (% of Cmp 1a) (GPR139 [2]; [7]),Ca2+ signal (% of Cmp 1a) (GPR139 [2]; [8]),Ca2+ signal (% of Cmp 1a) (GPR139 [2]; [9]),Ca2+ signal (% of Cmp 1a) (GPR139 [2]; [10]),Ca2+ signal (% of Cmp 1a) (GPR139 [2]; [11]),Ca2+ signal (% of Cmp 1a) (GPR139 [2]; [12]),Ca2+ signal (% of Cmp 1a) (GPR139 [2]; [13]),Ca2+ signal (% of Cmp 1a) (GPR139 [2]; [14]),Ca2+ signal (% of Carbachol) [3]
"Cc1nc2cc(-c3nc(CC(=O)NC(C)c4ccccc4)no3)ccc2o1 (stereo not shown) [Compound 1.22, CC(C1=CC=CC=C1)NC(CC2=NOC(C3=CC4=C(OC(C)=N4)C=C3)=N2)=O]",13 % of Cmp 1a and 39 % of Cmp 1a and 19 % of Cmp 1a,71 % of Cmp 1a and 37 % of Cmp 1a and 44 % of Cmp 1a,three-fold reduction to a complete loss of activity,1.58 µM,99 ± 2%,109 % of Cmp 1a and 96 % of Cmp 1a and 93 % of Cmp 1a and 83 % of Cmp 1a and 99 % of Cmp 1a,90 % of Cmp 1a and 71 % of Cmp 1a and 95 % of Cmp 1a and 84 % of Cmp 1a and 101 % of Cmp 1a,58 % of Cmp 1a and 43 % of Cmp 1a and 99 % of Cmp 1a and 59 % of Cmp 1a and 110 % of Cmp 1a,50 % of Cmp 1a and 22 % of Cmp 1a and 51 % of Cmp 1a and 35 % of Cmp 1a and 73 % of Cmp 1a,30 % of Cmp 1a and 0.909 % of Cmp 1a and 8 % of Cmp 1a and 29 % of Cmp 1a and 36 % of Cmp 1a,1.28 % of Cmp 1a and -0.203 % of Cmp 1a and -2.54 % of Cmp 1a and 0.332 % of Cmp 1a and 14 % of Cmp 1a,1.35 % of Cmp 1a and 7.39 % of Cmp 1a and -10 % of Cmp 1a and -1.26 % of Cmp 1a and 4 % of Cmp 1a,7 % of Cmp 1a and 10 % of Cmp 1a and -6 % of Cmp 1a and 0.314 % of Cmp 1a and 2.72 % of Cmp 1a,-3.6 % of Cmp 1a and 18 % of Cmp 1a and -4.69 % of Cmp 1a and -1.59 % of Cmp 1a and 9 % of Cmp 1a,-5 % of Cmp 1a and 7.5 % of Cmp 1a and -3.72 % of Cmp 1a and 1.69 % of Cmp 1a and 6.38 % of Cmp 1a,-19 % of Carbachol and -2.46 % of Carbachol and -2.2 % of Carbachol
"Cc1cc(-c2nc(CC(=O)NC(C)c3ccccc3)no2)no1 (stereo not shown) [Compound 1.23, CC(C1=CC=CC=C1)NC(CC2=NOC(C3=NOC(C)=C3)=N2)=O]",15 % of Cmp 1a and 20 % of Cmp 1a and 10 % of Cmp 1a,72 % of Cmp 1a and 57 % of Cmp 1a and 85 % of Cmp 1a,–,1.58 µM,95 ± 3%,95 % of Cmp 1a and 102 % of Cmp 1a and 98 % of Cmp 1a and 93 % of Cmp 1a,96 % of Cmp 1a and 81 % of Cmp 1a and 85 % of Cmp 1a and 77 % of Cmp 1a,80 % of Cmp 1a and 55 % of Cmp 1a and 48 % of Cmp 1a and 70 % of Cmp 1a,56 % of Cmp 1a and 30 % of Cmp 1a and 19 % of Cmp 1a and 38 % of Cmp 1a,38 % of Cmp 1a and 9 % of Cmp 1a and -1 % of Cmp 1a and 11 % of Cmp 1a,18 % of Cmp 1a and 5.7 % of Cmp 1a and 1.07 % of Cmp 1a and 6 % of Cmp 1a,12 % of Cmp 1a (2×) and 15 % of Cmp 1a and 0.388 % of Cmp 1a,-3 % of Cmp 1a and 11 % of Cmp 1a and 10 % of Cmp 1a and 0.199 % of Cmp 1a,-4.71 % of Cmp 1a and 7 % of Cmp 1a and 14 % of Cmp 1a and -1.47 % of Cmp 1a,4 % of Cmp 1a and 6.41 % of Cmp 1a and 7 % of Cmp 1a and -2.26 % of Cmp 1a,-3 % of Carbachol and 4.36 % of Carbachol and 7 % of Carbachol
